Legend:
[1] = test system: influenza B virus strain (B/Lee/1940); format: cell-based
[2] = test system: H3N2 influenza virus strain (A/Memphis/l/1971); format: cell-based
[3] = test system: influenza B virus strain (B/Lee/1940); format: cell-based; remark: listed apart in the source
[4] = test system: H1N1 (laboratory strain) influenza virus strain; format: cell-based, influenza A virus
[5] = test system: H3N2 influenza virus strain (A/Memphis/l/1971); format: cell-based; remark: listed apart in the source
[6] = test system: H1N1pdm influenza virus strain (A/Shizuoka/830/2009); format: cell-based
[7] = test system: H1N1 (laboratory strain) influenza virus strain; format: cell-based, influenza A virus; remark: listed apart in the source
[8] = test system: H1N1pdm influenza virus strain (A/Shizuoka/830/2009); format: cell-based; remark: listed apart in the source
[9] = test system: H1N1 influenza virus strain (A/Puerto Rico/8/1934); details: in vivo

| Substance | HA titer of influenza B virus [1] | amount of influenza virus (virus proliferation capacity) by focus assay, low concentration [2] | amount of influenza B virus (virus proliferation capacity) by plaque assay [3] | HA titer of influenza virus, low Bax inhibitor concentration [4] | HA titer of influenza virus, low Bax inhibitor concentration [5] | HA titer of influenza virus, low Bax inhibitor concentration [6] | amount of influenza virus (virus proliferation capacity) by focus assay, low concentration [7] | amount of influenza virus (virus proliferation capacity) by focus assay, low concentration [8] | amount of influenza virus (virus proliferation capacity) by focus assay [2] | HA titer of influenza virus [5] | HA titer of influenza virus, time-dependent [5] | HA titer of influenza virus [6] | HA titer of influenza virus, time-dependent [6] | amount of influenza virus (virus proliferation capacity) by focus assay [8] | increase of viral titer versus control group [9] [times] | viral titer compared with 10-fold control group (5×10^3 EID50/chicken egg) [9] |
| --- | --- | --- | --- | --- | --- | --- | --- | --- | --- | --- | --- | --- | --- | --- | --- | --- |
| Pro-Met-Leu-Lys-Glu (PMLKE) [SEQ ID NO: 2] | increases | enhances the virus proliferation capacity | exhibit the effect of enhancing the virus proliferation capacity | increase in the HA titer of the influenza virus was also observed | increase in the HA titer of the influenza virus was also observed | increase in the HA titer of the influenza virus was also observed | enhances the virus proliferation capacity | enhances the virus proliferation capacity |  |  |  |  |  |  |  |  |
| Val-Pro-Met-Leu-Lys (VPMLK) [SEQ ID NO: 1] | increases |  | exhibit the effect of enhancing the virus proliferation capacity | increases | increases | increases |  |  | exhibits the effect of enhancing the virus proliferation capacity | increases | increases the HA titer of the influenza virus strains in the early stages of the culture | increases | increases the HA titer of the influenza virus strains in the early stages of the culture | exhibits the effect of enhancing the virus proliferation capacity |  |  |
| Val-Ser-Ala-Leu-Lys (VSALK) [SEQ ID NO: 7] |  |  |  |  |  |  |  |  |  |  |  |  |  |  | 1.27 | higher |

From patent US12305197B2, “Proliferation method” (Kao Corporation, priority 2019, dated 2025)
